Measurements: patent US11738042B2, “Compositions and methods for promoting bone regeneration” (The Penn State Research Foundation, priority 2018, dated 2023)

Assays:
Type in all cases: cell-based, human
hMSCs [1] = assay: Intracellular ATP determination in hMSCs
hMSCs [2] = assay: Oxygen consumption rate (OCR) study in hMSCs
hMSCs [3] = assay: ALP production / osteogenic markers of hMSCs with soluble citrate, PSer or inhibitor (PNPP assay, western blot)
From the text: (§1) hMSCs with passage ≤6 were used in the present differentiation study. […] For osteo-phenotype progression assessment, cells were lysed, and alkaline phosphatase (ALP) production was quantified by using p-nitrophenyl phosphate (PNPP) as its substrate. Alizarin Red was used to stain the calcium nodules formed by the differentiating cells, and the calcium content in the nodules was quantified by Calcium Assay Kit (Sigma-Aldrich, St. Louis, Mo.) and normalized to protein amount as determined by BCA protein assay kit (Thermo Scientific™, Waltham, Mass.). Expression of osteogenic master transcription factor Runx2 was examined by real-time PCR and by using a Runx2 ELISA kit (American Research Products, Inc.™, Waltham, Mass.) according to manufacturer's instructions. Moreover, the expression of bone matrix proteins Collagen type I and osteopontin (OPN) were evaluated with real-time PCR, while OPN expression were also observed by immunofluorescent staining. Western blot was performed to evaluate the expression of ALP, OPN and SLC13a5 before or after differentiating for predetermined time periods.
For ALP expression analysis, cell samples were lysed using RIPA buffer, and the cell lysate was centrifuged to remove debris. Then ALP activity measurement was performed by utilizing p-nitrophenyl phosphate (PNPP) which is hydrolyzed by ALP into a yellow colored product. Briefly, the PNPP stock solution (IM) was diluted with ALP assay buffer at a ratio of 1:100, 50 μL of which was subsequently added to 50 μL of lysate sample. After 10-30 min of incubation at 37° C., the plates were measured at 405 nm on a plate reader (TECAN, Männedorf, Switzerland). The same cell lysate solutions were used to determine DNA amount via a PicoGreen dsDNA quantification kit (Invitrogen, Carlsbad, Calif.) according to the manufacturer's instructions.
After protein quantification by BCA assay, gel electrophoresis was carried out on AnykD™ Mini-Protean TGX stain-free Protein gels at 50 V for 10 min, followed by 250 V for 10-20 min, and was transferred to PVDF membranes with the Trans-Blot Turbo™ system. […]

hMSCs [4] = assay: Protein synthesis assay in undifferentiated hMSCs; settings: for citrate-mediated protein synthesis in presence of inhibitor: GM, with citrate
Procedure: Upon 24 and 96 hours incubation, protein synthesis was measured by labeling the intracellular translating proteins with clickable probes (Protein Synthesis Assay kit, Cayman Chemical, Ann Arbor, Mich.).

hMSCs [5] = assay: Extracellular acidification rate (ECAR) / glycolysis and lactate production in hMSCs; settings: undifferentiated hMSCs, 24 h citrate treatment in GM
hMSCs [6] = assay: Runx2 ELISA in hMSCs; settings: citrate treatment in OG, as early as day 4
From the text: as §1

hMSCs [7] = assay: Citrate assay, intracellular citrate in hMSCs; settings: 24 h incubation with citrate supplemented medium
hMSCs [8] = assay: Alizarin Red staining and calcium quantification of hMSCs; settings: citrate in growth medium (GM)
Procedure: hMSCs with passage ≤6 were used in the present differentiation study. […] Alizarin Red was used to stain the calcium nodules formed by the differentiating cells, and the calcium content in the nodules was quantified by Calcium Assay Kit (Sigma-Aldrich, St. Louis, Mo.) and normalized to protein amount as determined by BCA protein assay kit (Thermo Scientific™, Waltham, Mass.).
For Alizarin Red staining, cell samples were fixed with 4% paraformaldehyde, and 40 mM Alizarin red solutions were used to stain calcium nodules for 30 min with gentle shaking. After thoroughly washing, the stained cells were observed on a Microscope (Nikon, Tokyo, Japan). For calcium quantification, cell samples were washed with PBS and decalcified in 0.6 N HCl for 12 h with gentle shaking. Calcium content in the supernatants was determined colorimetrically by using the Calcium assay kit (Sigma-Aldrich, St. Louis, Mo.), while protein content in cell lysate solutions (lysed with RIPA buffer) was determined using the Pierce BCA protein assay kit (Thermo Scientific™, Waltham, Mass.) according to manufacturer's instructions.

hMSCs [9] = assay: Real-time PCR of osteogenic genes in differentiating hMSCs; settings: 200 μM citrate vs OG control, 7 and 14 days
From the text: as §1
Total RNA from whole cells was isolated with QIAGEN RNeasy kit (Hilden, Germany) and was transcribed into cDNA using High-Capacity cDNA Reverse Transcription Kits (Applied Biosystems™, Foster City, Calif.). For quantitative analysis, real-time PCR was performed using cDNA as the template, together with TaqMan Gene Expression Master Mix and the TaqMan Gene Expression Assays with both primers and probe included (Applied Biosystems™, Foster City, Calif.), and using the ABI 7900HT Fast Real-Time PCR system (Applied Biosystems™, Foster City, Calif.) according to manufacturer's instructions. Human PPIA (Cyclophilin A) was used for normalization. The primers and TaqMan probe for human Runx2, CoL1A1, SPP1 and PPIA were Hs00231692_ml, Hs00164004_ml, Hs00959010_ml, and Hs99999904_ml, respectively.

hMSCs [10] = assay: hMSC proliferation with citrate (CCK-8); settings: citrate 0 to 2000 μM, pH 7.4, in growth medium (GM)
From the text: as §1
Human mesenchymal stem cells (hMSCs; Lonza) were cultured in low glucose Dulbecco's Modified Eagle Medium (DMEM) with 10 vol. % fetal bovine serum (FBS) (Atlanta Biologicals; Flowery Branch, Ga.) and GlutaMAX (Gibco Laboratories, Gaithersburg, Md.). […]

[11] = differentiating hMSCs in OG, vs OG medium control
[12] = undifferentiated hMSCs, 24 h citrate treatment in GM

COc1ncc(C)cc1CC[C@@](O)(CC(=O)O)C(=O)O [PF06761281, reference compound]
citrate effect on metabolic flux to elevate intracellular ATP levels, with SLC13a5 inhibitor (hMSCs [1]; undifferentiated hMSCs, citrate plus inhibitor): could be abolished | citrate-increased mitochondrial respiration with SLC13a5 inhibitor (hMSCs [2]; hMSCs differentiated for 14 days, 1 day treatment in OG): likewise abolished | citrate-induced elevation of ALP production with SLC13a5 inhibitor (hMSCs [3]; 14 days in OG, citrate plus inhibitor): negated the citrate-induced elevation of ALP production

N[C@@H](COP(=O)(O)O)C(=O)O [PSer, Phosphoserine]
intracellular ATP (hMSCs [1]; [11]): showed no difference from the OG medium control | intracellular ATP levels (hMSCs [1]; undifferentiated hMSCs, addition of PSer with or without citrate treatment): no significant effect | citrate-promoted osteo-phenotype progression (ALP production) (hMSCs [3]; 40 μM PSer with citrate in OG, 21 days): substantially enhanced | ALP production (hMSCs [3]; higher PSer dosages (up to 1000 μM) with citrate in OG, 21 days): further elevation of ALP production

C[C@@H]1C[C@@H]([C@H](O)CC2CC(=O)NC(=O)C2)C(=O)[C@@H](C)C1 [Cycloheximide]
citrate-mediated protein synthesis in presence of inhibitor (hMSCs [4]): abolished this activity

O=C(O)CC(O)(CC(=O)O)C(=O)O [citrate]
glycolytic flux (ECAR) (hMSCs [5]): decrease in glycolytic flux | production of lactate (hMSCs [5]): reduced production of lactate | intracellular ATP (hMSCs [1]; [11]): showed no difference from the OG medium control | intracellular ATP (hMSCs [1]; hMSCs differentiated for 14 days, citrate in OG for 1 or 4 days): significant effects on intracellular ATP only after 4 days of treatment | intracellular ATP levels (hMSCs [1]; [12]): elevated intracellular ATP levels | mitochondrial respiration (OCR) (hMSCs [2]; hMSCs differentiated for 14 days, 1 day citrate treatment in OG): markedly increased | oxygen consumption rate (OCR) (hMSCs [2]; [12]): increased oxygen consumption rate | Runx2 protein (ELISA) (hMSCs [6]): favorable accumulation | intracellular citrate (hMSCs [7]): marked increase | protein synthesis (hMSCs [4]; 200 μM citrate in GM, 24 h and 96 h, vs control without citrate): increased significantly | calcium deposition by Alizarin Red staining (hMSCs [8]): absence of calcium deposition | expression of Col1a1 (real-time PCR) (hMSCs [9]): remarkably elevated expression | expression of Runx2 (real-time PCR) (hMSCs [9]): remarkably elevated expression | expression of SPP1 (real-time PCR) (hMSCs [9]): remarkably elevated expression | hMSCs proliferation (hMSCs [10]): little increase

CCC(=O)N1CCN(c2ccc(-n3c(=O)ccc4cnc5ccc(-c6cnc7ccccc7c6)cc5c43)cc2C(F)(F)F)CC1 [Torin1]
citrate-mediated protein synthesis in presence of inhibitor (hMSCs [4]): abolished this activity
